Values quoted from earlier work, collected in patent US20220387349A1, “TREATMENT OF CUTANEOUS ADVERSE EFFECTS CAUSED BY ONCOLOGICAL THERAPY WITH TOPICAL TAPINAROF COMPOSITIONS” (Sol-Gel Technologies Ltd, priority 2019, published 2022).
Where two headings read alike, the source gives them in different places.

What was measured:
[1] = psoriasis treatment, as a single drug; placebo 20.2%
[2] = tested on: interleukin-6 and interleukin-17A; details: mouse models
[3] = tested on: interleukin-6 and interleukin-17A; details: in vitro human skin studies
[4] = 1% tapinarof arm compared with the 0.5% arm or vehicle

| SMILES | adverse effects [1] [%] | efficacy [4] | onset of action [4] | most frequent adverse events (topical tapinarof) | side-effects at higher concentrations (topical, higher than 1% w/w tapinarof) | effect on skin barrier function [2] | effect on specific proinflammatory mediators, including interleukin-6 and interleukin-17A [2] | effect on skin barrier function [3] | effect on specific proinflammatory mediators, including interleukin-6 and interleukin-17A [3] |
| --- | --- | --- | --- | --- | --- | --- | --- | --- | --- |
| C=C1/C(=C\C=C2/CCC[C@]3(C)[C@@H]([C@H](C)/C=C/[C@@H](O)C4CC4)CC[C@@H]23)C[C@@H](O)C[C@@H]1O [calcipotriene] | 19.5 |  |  |  |  |  |  |  |  |
| CC(C)c1c(O)cc(/C=C/c2ccccc2)cc1O [Tapinarof, 3,5-dihydroxy-4-isopropyl-trans-stilbene] | 44.5 | higher efficacy | quicker onset of action | folliculitis and contact dermatitis | undesirable side-effects | enhance skin barrier function | inhibit specific proinflammatory mediators | enhance skin barrier function | inhibit specific proinflammatory mediators |
